Reference: patent US9976141B2, “Compositions and methods for inhibiting gene expression of Hif2alpha” (Arrowhead Madison Inc., priority 2015, dated 2018)
Strand notation (5' to 3'): a small letter for the sugar, then the base; units joined by * are phosphorothioate-linked, units joined directly phosphodiester-linked; [ ] holds rarer units or linkages, { } end groups; capitals alone tell only the bases. {Alk-SMPT-C6} = Alk-SMPT-C6 linker modification (publication code); [invdT] = inverted (3'-3') thymidine; d = 2'-deoxy (DNA); m = 2'-O-methyl; f = 2'-fluoro

Test system: human (tumor) Hif2α (EPAS1) mRNA
Assay: Hif2α knockdown in orthotopic RCC tumor bearing mice, single injection of RNAi trigger-delivery polymer conjugate, RT-qPCR (Table 7)
Format: in vivo
Details: RNAi trigger 115 μg, polymer 100A 375 μg; single tail vein injection; relative to isotonic glucose
How it was run: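 A single intravenous dose of Hif2α RNAi trigger–delivery polymer conjugate, or isotonic glucose vehicle, was given to nude mice with subcapsular A498-SEAP renal tumours (about 5–6 weeks old). At the indicated time, tumour RNA was assayed by biplex TaqMan qPCR against CycA, and relative expression was calculated by ΔΔCT versus vehicle.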

“AD01476 (antisense dTfUmUfCmAfUmGfAmAfAmUfCmGfUmUfAmCfGmUdT*dT; sense ACGUAACGAUUUCAUGAAA; siRNA; sense: sugars from the 5' end fmfmfmfmfmfmfmfmfmf, [invdT] at 3' end, all phosphodiester, 5' {Alk-SMPT-C6}, methylation of C not given here; further chemistry not fully specified)” was tested, and the “Relative Expression day 4 (Hif2α mRNA in kidney tumor)” value was 0.32.

Same assay, conditions: RNAi trigger 150 μg, polymer 100A 300 μg; single tail vein injection; relative to isotonic glucose

First: AD01407 (antisense TUUCAUGAAAUCGUUACGUCGGCUAU; sense UAUAUCGACGUAACGAUUUCAUGAAA; Hif2alpha RNAi agent antisense strand; modified_base 25 modified base = “2′-hydroxy corresponding nucleoside”; modified_base 2,4,6,10,12,14,16,18,20 /mod_base = “2′-deoxy-2′-fluoro corresponding nucleoside”; modified_base 3,5,7,9,11,13,15,17,19,21,22,23,24,26 /mod_base = “2′-O-methyl corresponding nucleoside”; modified_base 8 /mod_base = “2′-3′ seco corresponding nucleotide”; modified_base 2,24 /m; Hif2alpha RNAi agent sense strand; modified_base 2,4 modified base = “2′-hydroxy corresponding nucleoside”; modified_base 6,8,10,12,14,16,18,20,22,24,26 /mod_base = “2′-deoxy-2′-fluoro correspondi)
Second: AD01408 (antisense TUUCAUGAAAUCGUUACGUCGGCUAU; sense UAUAUCGACGUAACGAUUUCAUGAAA; Hif2alpha RNAi agent antisense strand; modified_base 25 modified base = “2′-hydroxy corresponding nucleoside”; modified_base 2,4,6,8,10,12,14,16,18,20 /mod_base = “2′-deoxy-2′-fluoro corresponding nucleoside”; modified_base 3,5,7,11,13,15,17,19,21,22,23,24,26 /mod_base = “2′-O-methyl corresponding nucleoside”; modified_base 9 /mod_base = “2′-3′ seco corresponding nucleotide”; modified_base 2,3,23,; Hif2alpha RNAi agent sense strand; modified_base 2,4 modified base = “2′-hydroxy corresponding nucleoside”; modified_base 6,8,10,12,14,16,18,20,22,24,26 /mod_base = “2′-deoxy-2′-fluoro correspondi)
The “Relative Expression day 4 (Hif2α mRNA in kidney tumor)” value of the first is lower: 0.47 for the first, 0.50 for the second.

Compared with “AD01409 (antisense TUUCAUGAAAUCGUUACGUCGGCUAU; sense UAUAUCGACGUAACGAUUUCAUGAAA; Hif2alpha RNAi agent antisense strand; modified_base 25 modified base = “2′-hydroxy corresponding nucleoside”; modified_base 2,4,6,8,10,12,14,16,18,20 /mod_base = “2′-deoxy-2′-fluoro corresponding nucleoside”; modified_base 3,5,7,11,13,15,17,19,21,22,23,24,26 /mod_base = “2′-O-methyl corresponding nucleoside”; modified_base 9 /mod_base = “2′-3′ seco corresponding nucleotide”; modified_base 2,3,23,; Hif2alpha RNAi agent sense strand; modified_base 2,4 modified base = “2′-hydroxy corresponding nucleoside”; modified_base 6,8,10,12,14,16,18,20,22,24,26 /mod_base = “2′-deoxy-2′-fluoro correspondi)”, “AD01410 (antisense TUUCAUGAAAUCGUUACGUCGGCUAU; sense UAUAUCGACGUAACGAUUUCAUGAAA; Hif2alpha RNAi agent antisense strand; modified_base 25 modified base = “2′-hydroxy corresponding nucleoside”; modified_base 2,4,6,8,10,12,14,16,18,20 /mod_base = “2′-deoxy-2′-fluoro corresponding nucleoside”; modified_base 3,5,7,11,13,15,17,19,21,22,23,24,26 /mod_base = “2′-O-methyl corresponding nucleoside”; modified_base 9 /mod_base = “2′-3′ seco corresponding nucleotide”; modified_base 2,24 /m; Hif2alpha RNAi agent sense strand; modified_base 2,4 modified base = “2′-hydroxy corresponding nucleoside”; modified_base 6,8,10,12,14,16,18,20,22,24,26 /mod_base = “2′-deoxy-2′-fluoro correspondi)” is lower in “Relative Expression day 4 (Hif2α mRNA in kidney tumor)” value: 0.55 for the first, 0.41 for the second.

First: AD01411 (antisense TUUCAUGAAAUCGUUACGUCGGCUAU; sense UAUAUCGACGUAACGAUUUCAUGAAA; Hif2alpha RNAi agent antisense strand; modified_base 25 modified base = “2′-hydroxy corresponding nucleoside”; modified_base 2,4,6,8,10,12,14,16,18,20 /mod_base = “2′-deoxy-2′-fluoro corresponding nucleoside”; modified_base 3,5,7,11,13,15,17,19,21,22,23,24,26 /mod_base = “2′-O-methyl corresponding nucleoside”; modified_base 9 /mod_base = “2′-3′ seco corresponding nucleotide”; modified_base 2,24 /m; Hif2alpha RNAi agent sense strand; modified_base 2,4 modified base = “2′-hydroxy corresponding nucleoside”; modified_base 6,8,10,12,14,16,18,20,22,24,26 /mod_base = “2′-deoxy-2′-fluoro correspondi)
Second: AD01424 (antisense TUUCAUGAAAUCGUUACGUCGGCUAU; sense UAUAUCGACGUAACGAUUUCAUGAAA; Hif2alpha RNAi agent antisense strand; modified_base 25 modified base = “2′-hydroxy corresponding nucleoside”; modified_base 2,4,6,8,10,12,14,16,18,20 /mod_base = “2′-deoxy-2′-fluoro corresponding nucleoside”; modified_base 3,5,7,11,13,15,17,19,21,22,23,24,26 /mod_base = “2′-O-methyl corresponding nucleoside”; modified_base 9 /mod_base = “2′-3′ seco corresponding nucleotide”; modified_base 2,3,23,; Hif2alpha RNAi agent sense strand; modified_base 2,4 modified base = “2′-hydroxy corresponding nucleoside”; modified_base 6,8,10,12,14,16,18,20,22,24 /mod_base = “2′-deoxy-2′-fluoro corresponding)
The “Relative Expression day 4 (Hif2α mRNA in kidney tumor)” value of the first is lower: 0.36 for the first, 0.54 for the second.
